Several values for one entry are separate records, joined by “and”; a condition that tells them apart may be missing. Equal values may be shown once.
Experiments:
mouse PCLS = experiment: LC–MS/MS quantification of intracellular BAs in mouse PCLS; type: cell-based; details: 48 h
Description: In short, freshly prepared PCLS were transferred to 12-well plates (Greiner bio-one GmbH, Austria), one slice per well. […] The composition of the human-like BA mixture was based on serum concentrations in mice and humans, measured by […]. […] A Shimadzu Nexera X2 HPLC system with binary pumps was interfaced to a Thermo Scientific TSQ Quantum ultra-triple quadrupole mass spectrometer. The BA analysis was performed by liquid chromatography-tandem mass spectrometry (LC-MS/MS). Xcalibur software version 2.0.7 by Thermo Scientific was applied in the data processing. […] Phenomenex, Utrecht, the Netherlands) reversed-phase column was used to separate the BAs. The column and autosampler temperatures were set at 55 °C and 4 °C, respectively. The injection volume was 15 μL, and the flow was set at 0.3 mL/min. […] Intracellular BA concentrations in PCLS were measured by LC-MS/MS. Sample preparation for these measurements of intracellular BAs was performed as follows. […] Hereafter, three slices for each condition were pooled in a 1.5-mL test tube, snap-frozen in liquid nitrogen and stored at -80 °C until analysis. […] Samples were subsequently centrifuged for 15 min at 15 °C and 13,000 rpm. The supernatant was collected in a new tube, and the samples were concentrated using a Concentrator plus centrifuge (Eppendorf, Germany). […] The concentrations of CA, CDCA, DCA, LCA, UDCA, HDCA, […] and GCA were determined with MRM-based LC-MS as described above.

rat PCLS = system: rat PCLS; set-up: method as in Starokozhko et al. [2017a]; details: in the presence of BAs, ref Starokozhko et al. [2017a]; cited from earlier work
Bsep = experiment: Western blot of Bsep protein in mouse PCLS; type: cell-based; details: 48 h, non-toxic concentration (CPZ 15 μM, CSA 1 μM, GB 25 μM), vs control with no drug and no BAs
Description: In short, freshly prepared PCLS were transferred to 12-well plates (Greiner bio-one GmbH, Austria), one slice per well.
In brief, the protein was extracted from three slices per treatment, and protein samples were denatured (75 °C for 10 min). […] Gels were blotted onto 0.2-μm polyvinylidene fluoride membranes using a Trans-Blot Turbo Transfer System (Bio-Rad, Munich, Germany), set to ramp up to 25 V in 15 min, at a constant current of 2.5 A. Membranes were then treated for 1 h with a protein blocking agent to prevent non-specific binding of antibodies, and incubated at 4 °C overnight with Bsep primary antibody (monoclonal antibody rabbit anti-Bsep, 1:2500, Tebu-Bio, Le Perray-en-Yvelines, France), Ntcp primary antibody (polyclonal antibody, rabbit anti-Ntcp, 1:2000, Tebu-Bio), and vinculin (116 kDa) primary antibody (monoclonal antibody, mouse anti-Vinculin, 1:500, Santa Cruz, California, USA). The following day, membranes were incubated with matching secondary antibodies for 1 h (Goat anti-rabbit HRP (Bsep and Ntcp), 1:2000; Rabbit anti-mouse HRP (vinculin), 1:5000, Dako, Santa Clara). Proteins were then visualized by adding Clarity Western ECL blotting substrate (Bio-Rad, Munich, Germany) and using a ChemiDoc Touch Imaging System (BioRad, Munich, Germany) for imaging of the resulting chemiluminescence. Afterward, Bsep and Ntcp expression was normalized by vinculin expression.

[1] = with humanized BA mixture, CPZ 15 µM, CSA 1 µM, GB 25 µM
[2] = with humanized BA mixture, CPZ 30 µM, CSA 6 µM, GB 65 µM
[3] = without BA mixture, CPZ 15 µM, CSA 1 µM, GB 25 µM
[4] = without BA mixture, CPZ 30 µM, CSA 6 µM, GB 65 µM

COc1ccc(Cl)cc1C(=O)NCCc1ccc(S(=O)(=O)NC(=O)NC2CCCCC2)cc1 [GB, Glibenclamide]
Effect on total intracellular BA concentration (mouse PCLS; in the absence of the BA mixture): decrease in intracellular concentrations of BAs | Intracellular CA concentration (mouse PCLS; [1]): 103.6±10.3 pmol/mg protein | Intracellular CDCA concentration (mouse PCLS; [1]): 14.7±1.6 pmol/mg protein | Intracellular DCA concentration (mouse PCLS; [1]): 50.7±7.4 pmol/mg protein | Intracellular GCA concentration (mouse PCLS; [1]): 13.4±2.4 pmol/mg protein | Intracellular HDCA concentration (mouse PCLS; [1]): 9.4±2.7 pmol/mg protein | Intracellular LCA concentration (mouse PCLS; [1]): 0.8±0.5 pmol/mg protein | Intracellular TCA concentration (mouse PCLS; [1]): 103.8±8.6 pmol/mg protein | Intracellular TCDCA concentration (mouse PCLS; [1]): 7.7±0.5 pmol/mg protein | Intracellular TDCA concentration (mouse PCLS; [1]): 7.6±0.8 pmol/mg protein | Intracellular THDCA concentration (mouse PCLS; [1]): 8.3±1.4 pmol/mg protein | Intracellular UDCA concentration (mouse PCLS; [1]): 19.1±1.7 pmol/mg protein | Total intracellular concentration of 11 BAs (mouse PCLS; [1]): 339.2±20.7 pmol/mg protein | Intracellular CA concentration (mouse PCLS; [2]): 132.3±11.3 pmol/mg protein | Intracellular CDCA concentration (mouse PCLS; [2]): 14.8±1.3 pmol/mg protein | Intracellular DCA concentration (mouse PCLS; [2]): 121.3±8.6 pmol/mg protein | Intracellular GCA concentration (mouse PCLS; [2]): 22.4 pmol/mg protein and 22.4±6.1 pmol/mg protein | Intracellular HDCA concentration (mouse PCLS; [2]): 25.7±1.5 pmol/mg protein | Intracellular LCA concentration (mouse PCLS; [2]): 0.9±0.3 pmol/mg protein | Intracellular TCA concentration (mouse PCLS; [2]): 135.2±19.9 pmol/mg protein | Intracellular TCDCA concentration (mouse PCLS; [2]): 8.6±1.2 pmol/mg protein | Intracellular TDCA concentration (mouse PCLS; [2]): 14.6±0.9 pmol/mg protein | Intracellular THDCA concentration (mouse PCLS; [2]): 11.4±2.6 pmol/mg protein | Intracellular UDCA concentration (mouse PCLS; [2]): 24.5±3.9 pmol/mg protein | Effect on total intracellular BA concentration (mouse PCLS; with humanized BA mixture, vs control): reduced or did not affect | Intracellular CA concentration (mouse PCLS; [3]): 0.5±0.0 pmol/mg protein | Intracellular CDCA concentration (mouse PCLS; [3]): 0.2±0.1 pmol/mg protein | Intracellular DCA concentration (mouse PCLS; [3]): 0.6±0.5 pmol/mg protein | Intracellular GCA concentration (mouse PCLS; [3]): 0.0±0.0 pmol/mg protein | Intracellular HDCA concentration (mouse PCLS; [3]): 0.0±0.0 pmol/mg protein | Intracellular LCA concentration (mouse PCLS; [3]): 0.1±0.1 pmol/mg protein | Intracellular TCA concentration (mouse PCLS; [3]): 0.7±0.2 pmol/mg protein | Intracellular TCDCA concentration (mouse PCLS; [3]): 2.3±0.5 pmol/mg protein | Intracellular TDCA concentration (mouse PCLS; [3]): 0.0±0.0 pmol/mg protein | Intracellular THDCA concentration (mouse PCLS; [3]): 1.8±0.3 pmol/mg protein | Intracellular UDCA concentration (mouse PCLS; [3]): 0.0±0.0 pmol/mg protein | Total intracellular concentration of 11 BAs (mouse PCLS; [3]): 6.3±0.0 pmol/mg protein | Intracellular CA concentration (mouse PCLS; [4]): 0.5±0.2 pmol/mg protein | Intracellular CDCA concentration (mouse PCLS; [4]): 0.4±0.3 pmol/mg protein | Intracellular DCA concentration (mouse PCLS; [4]): 0.1±0.1 pmol/mg protein | Intracellular GCA concentration (mouse PCLS; [4]): 0.0±0.0 pmol/mg protein | Intracellular HDCA concentration (mouse PCLS; [4]): 0.0±0.0 pmol/mg protein | Intracellular LCA concentration (mouse PCLS; [4]): 0.2±0.1 pmol/mg protein | Intracellular TCA concentration (mouse PCLS; [4]): 0.3±0.1 pmol/mg protein | Intracellular TCDCA concentration (mouse PCLS; [4]): 2.0±0.4 pmol/mg protein | Intracellular TDCA concentration (mouse PCLS; [4]): 0.0±0.0 pmol/mg protein | Intracellular THDCA concentration (mouse PCLS; [4]): 0.5±0.1 pmol/mg protein | Intracellular UDCA concentration (mouse PCLS; [4]): 0.0±0.0 pmol/mg protein | Total intracellular concentration of 11 BAs (mouse PCLS; [4]): 4.2±0.0 pmol/mg protein | Concentration reaching severe toxicity (rat PCLS): 180 µM | Bsep protein expression (western blot band intensity) (Bsep): did not induce any significant changes
